# Data taken from paper PMC9345997, “Determination of oligosaccharide product distributions of PL7 alginate lyases by their structural elements” (Communications Biology, 2022).
# Molecular target: T1, PyAly (Pyropia yezoensis, UniProt D2KX85, H125A/Y223A)
# T1 construct: single-domain PL7 lyase; E. coli BL21(DE3), pET32a; tag cleaved; residues built 27-241
# Assay: X-ray crystal structure, […] A
# Assay type: binding
# Settings: cocrystallized at 10:1 molar ratio; complete M5 at subsites -2 to +3
# T1 sequence (D2KX85 entry or part of it H125A/Y223A): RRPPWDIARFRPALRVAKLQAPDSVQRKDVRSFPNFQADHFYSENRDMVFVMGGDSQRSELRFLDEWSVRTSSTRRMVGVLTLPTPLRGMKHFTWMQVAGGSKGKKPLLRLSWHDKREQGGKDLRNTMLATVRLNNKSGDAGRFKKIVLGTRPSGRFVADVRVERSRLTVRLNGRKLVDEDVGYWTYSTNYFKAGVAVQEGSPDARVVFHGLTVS
compound,measurement,value
O=C(O)[C@H]1O[C@@H](O[C@H]2[C@H](O)[C@H](O)[C@H](O[C@H]3[C@H](O)[C@H](O)[C@H](O[C@H]4[C@H](O)[C@H](O)[C@H](O[C@H]5[C@H](O)[C@H](O)C(O)O[C@@H]5C(=O)O)O[C@@H]4C(=O)O)O[C@@H]3C(=O)O)O[C@@H]2C(=O)O)[C@@H](O)[C@@H](O)[C@@H]1O (stereo partly shown) [M5],"X-ray crystal structure, 1.70 A",structure of the PyAly^H125A_Y223A-M5 complex presented the complete M5 substrate
